Experimental data from ChEMBL document CHEMBL1671827, “Discovery of MK-5046, a Potent, Selective Bombesin Receptor Subtype-3 Agonist for the Treatment of Obesity” (ACS Med Chem Lett, 2011).
Calls of active or inactive are those of the source. The rule behind the calls is not given here.

Tests used:
[1] = biological target: T1, Bombesin receptor subtype-3 (Homo sapiens, UniProt P32247); assay: Displacement of [125I]-[D-Tyr6,beta-Ala11,Phe13,Nle14]-Bombesin (6-14) from human BRS-3
T1 sequence (P32247 whole entry): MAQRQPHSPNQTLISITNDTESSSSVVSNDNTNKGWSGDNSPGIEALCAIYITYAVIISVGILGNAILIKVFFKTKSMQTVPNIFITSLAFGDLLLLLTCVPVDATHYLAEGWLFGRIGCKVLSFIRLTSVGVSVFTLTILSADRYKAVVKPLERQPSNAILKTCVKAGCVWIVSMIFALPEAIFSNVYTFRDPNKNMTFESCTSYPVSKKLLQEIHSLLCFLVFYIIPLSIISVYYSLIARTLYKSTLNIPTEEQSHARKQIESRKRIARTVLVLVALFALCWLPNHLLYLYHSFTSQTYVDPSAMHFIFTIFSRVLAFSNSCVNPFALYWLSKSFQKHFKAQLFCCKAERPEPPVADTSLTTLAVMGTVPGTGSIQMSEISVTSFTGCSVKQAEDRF

[2] = Faction unbound in human plasma at 1 uM; assay type: ADME, cell-free
[3] = biological target: T1, Bombesin receptor subtype-3; assay: Agonist activity at human BRS-3 expressed in HEK293AEQ cells assessed as induction of intracellular calcium mobilization by aequorin bioluminescence assay; assay type: functional, cell-based
[4] = Fraction unbound in rat plasma at 1 uM; assay type: ADME, cell-free
[5] = Plasma clearance in rat at 1 mg/kg, iv; assay type: ADME, organism-based; design: dose 1 mg/kg, route intravenous
[6] = biological target: Voltage-gated inwardly rectifying potassium channel KCNH2 (Homo sapiens, UniProt Q12809); assay: Binding affinity to human ERG
[7] = Half life in rat liver microsomes
[8] = Plasma clearance in dog at 0.5 mg/kg, iv; assay type: ADME, organism-based, Canis lupus familiaris; design: dose 0.5 mg/kg, route intravenous
[9] = Oral bioavailability in dog at 1 mg/kg; assay type: ADME, organism-based, Canis lupus familiaris; conditions: in vivo
[10] = Half life in dog at 0.5 mg/kg, iv; assay type: ADME, organism-based, Canis lupus familiaris; design: dose 0.5 mg/kg, route intravenous; conditions: in vivo
[11] = Inhibition of human calcium channel diltiazem binding site
[12] = biological target: Gastrin-releasing peptide receptor (Homo sapiens, UniProt P30550); assay: Inhibition of human GRPR
Neuromedin-B receptor = Neuromedin-B receptor (Homo sapiens, UniProt P28336); assay: Inhibition of human NMBR
[13] = biological target: T2, Nuclear receptor subfamily 1 group I member 2 (Homo sapiens, UniProt O75469)
T2 sequence (O75469 whole entry): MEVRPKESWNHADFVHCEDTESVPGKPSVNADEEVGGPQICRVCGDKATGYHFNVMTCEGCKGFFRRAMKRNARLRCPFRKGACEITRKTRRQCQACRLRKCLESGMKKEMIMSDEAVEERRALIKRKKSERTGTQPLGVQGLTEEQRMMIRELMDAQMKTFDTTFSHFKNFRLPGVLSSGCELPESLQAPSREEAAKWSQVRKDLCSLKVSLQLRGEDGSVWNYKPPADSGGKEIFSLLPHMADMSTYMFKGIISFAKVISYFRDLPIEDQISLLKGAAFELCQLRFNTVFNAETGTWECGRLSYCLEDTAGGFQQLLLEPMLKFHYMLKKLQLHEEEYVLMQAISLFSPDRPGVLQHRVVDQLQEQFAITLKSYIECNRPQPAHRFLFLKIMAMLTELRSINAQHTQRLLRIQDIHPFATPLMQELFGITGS

[14] = Agonist activity at dog BRS-3 expressed in HEK293AEQ cells assessed as induction of intracellular calcium mobilization by aequorin bioluminescence assay; assay type: functional, cell-based; conditions: Canis lupus familiaris
[15] = Oral bioavailability in rhesus monkey at 1 mg/kg; assay type: ADME, organism-based, Macaca mulatta; conditions: in vivo
[16] = Agonist activity at rhesus monkey BRS-3 expressed in HEK293AEQ cells assessed as induction of intracellular calcium mobilization by aequorin bioluminescence assay; assay type: functional, cell-based; conditions: Macaca mulatta
Mus musculus [17] = species on record: Mus musculus; assay: Antiobesity activity in wild type mouse assessed as increase of fasting metabolic rate; assay type: functional, organism-based
[18] = Binding affinity to rhesus monkey BRS-3; design: species or system Macaca mulatta
[19] = Plasma clearance in rhesus monkey at 0.5 mg/kg, iv; assay type: ADME, organism-based, Macaca mulatta; design: dose 0.5 mg/kg, route intravenous
[20] = Binding affinity to dog BRS-3; design: species or system Canis lupus familiaris
[21] = Volume of distribution at steady state in mouse at 1 mg/kg, iv; assay type: ADME, organism-based; design: dose 1 mg/kg, route intravenous; conditions: in vivo, read-out: Vdss
[22] = Plasma clearance in mouse at 1 mg/kg, iv; assay type: ADME, organism-based; design: dose 1 mg/kg, route intravenous
[23] = Oral bioavailability in rat at 2 mg/kg; assay type: ADME, organism-based; conditions: in vivo
Mus musculus [24] = species on record: Mus musculus; assay: Antiobesity activity in BRS3 deficient mouse assessed as reduction of food intake; assay type: functional, organism-based
Mus musculus [25] = species on record: Mus musculus; assay: Antiobesity activity in wild type mouse assessed as reduction of food intake; assay type: functional, organism-based
[26] = biological target: T3, Bombesin receptor subtype-3 (Rattus norvegicus, UniProt Q8K418); assay: Agonist activity at rat BRS-3 expressed in HEK293AEQ cells assessed as induction of intracellular calcium mobilization by aequorin bioluminescence assay; assay type: functional, cell-based
T3 sequence (Q8K418 whole entry): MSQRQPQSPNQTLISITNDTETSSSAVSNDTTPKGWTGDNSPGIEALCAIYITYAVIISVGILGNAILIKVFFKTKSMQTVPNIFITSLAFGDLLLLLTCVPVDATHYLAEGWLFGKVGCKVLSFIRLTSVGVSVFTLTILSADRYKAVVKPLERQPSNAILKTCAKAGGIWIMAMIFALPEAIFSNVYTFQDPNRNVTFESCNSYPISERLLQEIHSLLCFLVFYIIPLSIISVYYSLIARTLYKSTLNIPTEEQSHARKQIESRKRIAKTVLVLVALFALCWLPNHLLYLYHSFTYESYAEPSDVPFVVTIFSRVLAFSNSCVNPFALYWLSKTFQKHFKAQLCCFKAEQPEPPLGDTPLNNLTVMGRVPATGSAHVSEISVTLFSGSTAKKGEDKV

[27] = Oral bioavailability in mouse at 2 mg/kg, po; assay type: ADME, organism-based; conditions: in vivo
Mus musculus [28] = assay: Antiobesity activity in eDIO mouse assessed as reduction of body weight at 25 mg/kg, sc after 14 days; assay type: functional, organism-based; design: dose 25 mg/kg
[29] = biological target: T3, Bombesin receptor subtype-3; assay: Displacement of [3H]Bag-3 from rat BRS-3
[30] = Half life in rhesus monkey at 0.5 mg/kg, iv; assay type: ADME, organism-based, Macaca mulatta; design: dose 0.5 mg/kg, route intravenous; conditions: in vivo
Mus musculus [31] = species on record: Mus musculus; assay: Antiobesity activity in BRS3 deficient mouse assessed as increase of fasting metabolic rate; assay type: functional, organism-based
[32] = biological target: T4, Bombesin receptor subtype-3 (Mus musculus, UniProt O54798); assay: Agonist activity at mouse BRS-3 expressed in HEK293AEQ cells assessed as induction of intracellular calcium mobilization by aequorin bioluminescence assay; assay type: functional, cell-based
T4 sequence (O54798 whole entry): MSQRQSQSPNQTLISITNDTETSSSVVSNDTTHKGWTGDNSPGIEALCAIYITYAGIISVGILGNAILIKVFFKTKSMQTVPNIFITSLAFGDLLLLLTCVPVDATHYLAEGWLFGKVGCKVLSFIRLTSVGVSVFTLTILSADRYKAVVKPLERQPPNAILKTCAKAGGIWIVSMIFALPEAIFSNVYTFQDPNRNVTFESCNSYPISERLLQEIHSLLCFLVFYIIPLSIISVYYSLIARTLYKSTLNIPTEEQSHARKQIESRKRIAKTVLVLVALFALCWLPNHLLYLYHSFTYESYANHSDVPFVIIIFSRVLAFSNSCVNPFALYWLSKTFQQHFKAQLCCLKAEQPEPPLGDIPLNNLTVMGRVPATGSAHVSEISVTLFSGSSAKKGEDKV

[33] = Agonist activity at rhesus monkey BRS-3 expressed in HEK293AEQ cells assessed as induction of intracellular calcium mobilization by aequorin bioluminescence assay relative to dY peptide; conditions: Macaca mulatta
[34] = Half life in mouse at 1 mg/kg, iv; assay type: ADME, organism-based; design: dose 1 mg/kg, route intravenous; conditions: in vivo
[35] = biological target: T4, Bombesin receptor subtype-3; assay: Displacement of [3H]Bag-3 from mouse BRS-3
Mus musculus [36] = assay: Antiobesity activity in eDIO mouse assessed as reduction of body weight at 25 mg/kg, sc relative to control; assay type: functional; design: scale not given: the % may be the effect or the level left; conditions: route subcutaneous
[37] = Volume of distribution at steady state in dog at 0.5 mg/kg, iv; assay type: ADME, organism-based, Canis lupus familiaris; design: dose 0.5 mg/kg, route intravenous; conditions: in vivo, read-out: Vdss
[38] = Agonist activity at dog BRS-3 expressed in HEK293AEQ cells assessed as induction of intracellular calcium mobilization by aequorin bioluminescence assay relative to dY peptide; conditions: Canis lupus familiaris
[39] = Volume of distribution at steady state in rat at 1 mg/kg, iv; assay type: ADME, organism-based; design: dose 1 mg/kg, route intravenous; conditions: in vivo, read-out: Vdss
[40] = Volume of distribution at steady state in rhesus monkey at 0.5 mg/kg, iv; assay type: ADME, organism-based, Macaca mulatta; design: dose 0.5 mg/kg, route intravenous; conditions: in vivo, read-out: Vdss
[41] = Half life in rat at 1 mg/kg, iv; assay type: ADME, organism-based; design: dose 1 mg/kg, route intravenous; conditions: in vivo

Chain of Voltage-gated inwardly rectifying potassium channel KCNH2 (Q12809 whole entry): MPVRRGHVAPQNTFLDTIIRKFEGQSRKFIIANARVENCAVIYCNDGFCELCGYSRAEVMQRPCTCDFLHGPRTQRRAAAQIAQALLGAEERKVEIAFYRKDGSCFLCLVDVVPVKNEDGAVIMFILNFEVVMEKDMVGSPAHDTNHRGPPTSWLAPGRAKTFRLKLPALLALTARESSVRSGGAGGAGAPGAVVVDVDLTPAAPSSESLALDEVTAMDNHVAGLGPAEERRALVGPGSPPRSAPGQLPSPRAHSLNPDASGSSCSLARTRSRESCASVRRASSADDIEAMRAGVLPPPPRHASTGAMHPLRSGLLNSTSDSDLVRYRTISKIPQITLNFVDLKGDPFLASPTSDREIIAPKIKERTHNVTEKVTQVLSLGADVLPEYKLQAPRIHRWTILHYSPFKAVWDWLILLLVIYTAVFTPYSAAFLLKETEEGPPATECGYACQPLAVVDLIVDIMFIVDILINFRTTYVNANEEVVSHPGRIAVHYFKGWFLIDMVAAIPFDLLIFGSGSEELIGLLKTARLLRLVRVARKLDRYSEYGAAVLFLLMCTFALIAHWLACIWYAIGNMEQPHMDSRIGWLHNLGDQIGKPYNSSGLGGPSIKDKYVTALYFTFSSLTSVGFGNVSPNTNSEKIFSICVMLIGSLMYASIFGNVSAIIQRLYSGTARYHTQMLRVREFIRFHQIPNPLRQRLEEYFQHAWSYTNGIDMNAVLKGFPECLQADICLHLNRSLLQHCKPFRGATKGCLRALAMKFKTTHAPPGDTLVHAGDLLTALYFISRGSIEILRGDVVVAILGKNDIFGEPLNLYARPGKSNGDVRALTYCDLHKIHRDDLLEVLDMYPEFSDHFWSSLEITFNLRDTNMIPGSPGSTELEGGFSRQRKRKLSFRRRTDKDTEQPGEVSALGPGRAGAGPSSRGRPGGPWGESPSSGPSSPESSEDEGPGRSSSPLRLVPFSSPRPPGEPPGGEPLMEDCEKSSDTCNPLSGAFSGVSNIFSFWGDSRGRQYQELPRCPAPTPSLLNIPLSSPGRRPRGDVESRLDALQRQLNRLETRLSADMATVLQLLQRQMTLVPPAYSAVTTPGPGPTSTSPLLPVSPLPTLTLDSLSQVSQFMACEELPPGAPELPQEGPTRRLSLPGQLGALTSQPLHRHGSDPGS
Chain of Neuromedin-B receptor (P28336 whole entry): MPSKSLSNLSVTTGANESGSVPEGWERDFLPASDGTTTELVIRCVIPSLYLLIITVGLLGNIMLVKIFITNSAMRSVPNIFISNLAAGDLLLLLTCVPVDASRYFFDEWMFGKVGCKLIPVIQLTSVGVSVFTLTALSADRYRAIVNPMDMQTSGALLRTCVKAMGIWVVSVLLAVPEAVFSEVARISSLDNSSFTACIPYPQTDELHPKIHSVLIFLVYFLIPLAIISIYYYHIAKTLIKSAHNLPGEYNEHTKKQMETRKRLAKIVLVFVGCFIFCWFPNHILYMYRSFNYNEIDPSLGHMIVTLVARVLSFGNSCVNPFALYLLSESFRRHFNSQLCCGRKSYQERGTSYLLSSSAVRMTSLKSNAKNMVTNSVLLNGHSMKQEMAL
Chain of Gastrin-releasing peptide receptor (P30550 whole entry): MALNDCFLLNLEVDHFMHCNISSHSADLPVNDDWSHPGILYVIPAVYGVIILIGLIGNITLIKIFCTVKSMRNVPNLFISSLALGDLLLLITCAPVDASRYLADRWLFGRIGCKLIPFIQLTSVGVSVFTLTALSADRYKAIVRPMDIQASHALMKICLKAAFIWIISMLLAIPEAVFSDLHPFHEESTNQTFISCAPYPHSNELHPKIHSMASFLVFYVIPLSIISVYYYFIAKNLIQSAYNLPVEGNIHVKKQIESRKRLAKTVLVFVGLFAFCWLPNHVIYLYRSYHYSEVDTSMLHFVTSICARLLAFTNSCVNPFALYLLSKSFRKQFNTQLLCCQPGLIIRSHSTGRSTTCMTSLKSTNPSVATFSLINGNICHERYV

Structure (SMILES): CC(C)(C)Cc1c[nH]c(C(C)(O)Cc2ccc(-c3ccc(F)cn3)cc2)n1 (stereo not drawn)
- IC50 [1]: 82 nM
- fraction unbound at 1 µM [2]: 0.001
- EC50 [3]: 220 nM
- fraction unbound at 1 µM [4]: 0.2
- clearance [5]: 14 mL/min/kg
- Ki [6]: 5.9 µM
- half-life [7]: 1 min

Structure (SMILES): CC(C)(C)Cc1c[nH]c(CC(C)(O)c2ccc(-n3cccn3)cc2)n1 (stereo not drawn)
- IC50 [1]: 5 nM
- fraction unbound at 1 µM [2]: 0.068
- EC50 [3]: 16 nM
- clearance [5]: 110 mL/min/kg

Structure (SMILES): CC(O)(Cc1nc(CC2(C(F)(F)F)CC2)c[nH]1)c1ccc(-n2cccn2)cc1 (stereo not drawn)
- IC50 [1]: 11 nM
- fraction unbound at 1 µM [2]: 0.032
- EC50 [3]: 14 nM
- clearance [5]: 52 mL/min/kg
- clearance [8]: 10 mL/min/kg
- bioavailability [9]: 29%
- half-life [10]: 18 min

Structure (SMILES): CCC(C)(C)Cc1cnc(CCc2ccc(-c3ccc(F)cn3)cc2)[nH]1
- IC50 [1]: 16 nM
- clearance [5]: 12 mL/min/kg
- half-life [7]: 3 min

Structure (SMILES): CC(C)(C)Cc1c[nH]c(CC(C)(O)c2ccc(-c3ccc(F)cn3)cc2)n1 (stereo not drawn)
- IC50 [1]: 17 nM
- fraction unbound at 1 µM [2]: 0.004
- IC50 [11]: 1900 nM
- IC50 [12]: > 10 µM
- EC50 [3]: 67 nM
- IC50 (Neuromedin-B receptor): > 10 µM
- fraction unbound at 1 µM [4]: 0.2
- EC50 [13]: > 25 µM
- clearance [5]: 28 mL/min/kg
- Ki [6]: 4.2 µM
- half-life [7]: 5 min

Structure (SMILES): O[C@@](Cc1nc(CC2(C(F)(F)F)CC2)c[nH]1)(c1ccc(-n2cccn2)cc1)C(F)(F)F
- IC50 [1]: 27 nM
- Ki [1]: 3.7 nM
- EC50 [14]: 1.6 nM
- bioavailability [15]: 18%
- EC50 [16]: 6.9 nM
- Activity (Mus musculus [17]): Active
- IC50 [18]: 50 nM
- Ki [18]: 2.4 nM
- fraction unbound at 1 µM [2]: 0.01
- clearance [19]: 8.8 mL/min/kg
- IC50 [20]: 6.5 nM
- Ki [20]: 9.9 nM
- EC50 [3]: 14 nM
- Vd [21]: 2.2 L/kg
- clearance [22]: 32 mL/min/kg
- bioavailability [23]: 64%
- Activity (Mus musculus [24]): inactive
- Activity (Mus musculus [25]): Active
- EC50 [26]: 2.2 nM
- bioavailability [27]: 9.6%
- Activity (Mus musculus [28]): Active
- IC50 [29]: 1.2 nM
- Ki [29]: 0.6 nM
- half-life [30]: 60 min
- Activity (Mus musculus [31]): inactive
- EC50 [32]: 21 nM
- clearance [5]: 20 mL/min/kg
- clearance [8]: 5.6 mL/min/kg
- Emax [33]: 110%
- half-life [34]: 66 min
- IC50 [35]: 5.4 nM
- Ki [35]: 1.6 nM
- Ki [6]: > 8 µM
- Activity (Mus musculus [36]): 8%
- bioavailability [9]: 52%
- Vd [37]: 0.45 L/kg
- Emax [38]: 100%
- Vd [39]: 0.98 L/kg
- half-life [10]: 84 min
- Vd [40]: 0.44 L/kg
- half-life [41]: 42 min
